Measurements: ChEMBL document CHEMBL5252522 (Eur J Med Chem, 2016)

Tests used:
[1] = biological target: Histone deacetylase; assay type: protein assay, Homo sapiens
[2] = biological target: Histone deacetylase 1 (Homo sapiens, UniProt Q13547); assay: Inhibition of HDAC1 (unknown origin)
[3] = biological target: Histone deacetylase 3 (Homo sapiens, UniProt O15379); assay: Inhibition of HDAC3 (unknown origin)
[4] = biological target: T1, Histone deacetylase 7 (Homo sapiens, UniProt Q8WUI4); assay: Inhibition of HDAC7 (unknown origin)
T1 sequence (Q8WUI4 whole entry): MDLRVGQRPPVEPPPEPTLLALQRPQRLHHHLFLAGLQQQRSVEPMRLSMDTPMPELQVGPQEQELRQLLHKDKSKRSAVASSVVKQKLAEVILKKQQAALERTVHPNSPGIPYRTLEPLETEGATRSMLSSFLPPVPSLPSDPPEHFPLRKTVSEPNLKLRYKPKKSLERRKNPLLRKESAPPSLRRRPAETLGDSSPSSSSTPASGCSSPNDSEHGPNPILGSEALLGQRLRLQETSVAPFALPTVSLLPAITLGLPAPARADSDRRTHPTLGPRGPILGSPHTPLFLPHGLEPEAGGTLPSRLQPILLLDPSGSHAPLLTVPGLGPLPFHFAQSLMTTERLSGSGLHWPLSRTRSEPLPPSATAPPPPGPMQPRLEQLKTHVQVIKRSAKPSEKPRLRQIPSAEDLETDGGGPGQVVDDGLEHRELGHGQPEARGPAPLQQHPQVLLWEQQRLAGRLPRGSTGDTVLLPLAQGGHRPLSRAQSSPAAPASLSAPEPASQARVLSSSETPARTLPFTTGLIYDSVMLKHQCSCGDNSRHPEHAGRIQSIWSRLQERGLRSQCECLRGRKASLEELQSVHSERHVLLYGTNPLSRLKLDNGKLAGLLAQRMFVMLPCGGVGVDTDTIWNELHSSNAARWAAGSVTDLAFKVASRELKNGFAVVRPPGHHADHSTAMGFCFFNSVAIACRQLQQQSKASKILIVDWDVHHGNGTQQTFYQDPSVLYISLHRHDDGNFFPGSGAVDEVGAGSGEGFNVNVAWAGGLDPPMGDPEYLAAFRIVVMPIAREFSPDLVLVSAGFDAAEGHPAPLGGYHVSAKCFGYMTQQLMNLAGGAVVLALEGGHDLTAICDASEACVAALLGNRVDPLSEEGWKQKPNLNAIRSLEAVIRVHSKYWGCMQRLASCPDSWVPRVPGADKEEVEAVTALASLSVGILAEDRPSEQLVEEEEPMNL

[5] = biological target: T2, Histone deacetylase 11 (Homo sapiens, UniProt Q96DB2); assay: Inhibition of HDAC11 (unknown origin)
T2 sequence (Q96DB2 whole entry): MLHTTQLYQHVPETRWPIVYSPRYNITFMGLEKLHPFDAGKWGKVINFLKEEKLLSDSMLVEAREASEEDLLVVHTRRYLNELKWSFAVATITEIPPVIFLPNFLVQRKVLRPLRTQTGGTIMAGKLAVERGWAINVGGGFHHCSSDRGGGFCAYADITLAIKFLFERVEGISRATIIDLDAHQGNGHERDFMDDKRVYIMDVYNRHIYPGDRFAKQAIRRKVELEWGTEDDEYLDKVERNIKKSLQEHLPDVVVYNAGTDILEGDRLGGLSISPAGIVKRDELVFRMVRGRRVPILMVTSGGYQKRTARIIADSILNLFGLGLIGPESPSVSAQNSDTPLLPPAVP

[6] = biological target: T3, Histone deacetylase 8 (Homo sapiens, UniProt Q9BY41); assay: Inhibition of HDAC8 (unknown origin)
T3 sequence (Q9BY41 whole entry): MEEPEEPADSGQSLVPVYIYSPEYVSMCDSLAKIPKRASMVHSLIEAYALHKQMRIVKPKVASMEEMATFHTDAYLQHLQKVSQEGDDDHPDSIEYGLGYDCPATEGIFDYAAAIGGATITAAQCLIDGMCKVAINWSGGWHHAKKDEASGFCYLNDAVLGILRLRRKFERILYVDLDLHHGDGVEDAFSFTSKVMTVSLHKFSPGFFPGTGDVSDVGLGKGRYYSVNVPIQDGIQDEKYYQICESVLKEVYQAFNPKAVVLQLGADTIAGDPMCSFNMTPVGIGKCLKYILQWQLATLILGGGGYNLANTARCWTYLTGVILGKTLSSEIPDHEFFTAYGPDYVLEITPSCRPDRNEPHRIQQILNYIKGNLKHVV

[7] = biological target: Histone deacetylase 5 (Homo sapiens, UniProt Q9UQL6); assay: Inhibition of HDAC5 (unknown origin)
[8] = biological target: Histone deacetylase 9 (Homo sapiens, UniProt Q9UKV0); assay: Inhibition of HDAC9 (unknown origin)
[9] = biological target: Histone deacetylase 4 (Homo sapiens, UniProt P56524); assay: Inhibition of HDAC4 (unknown origin)
[10] = biological target: T4, Polyamine deacetylase HDAC10 (Homo sapiens, UniProt Q969S8); assay: Inhibition of HDAC10 (unknown origin)
T4 sequence (Q969S8 whole entry): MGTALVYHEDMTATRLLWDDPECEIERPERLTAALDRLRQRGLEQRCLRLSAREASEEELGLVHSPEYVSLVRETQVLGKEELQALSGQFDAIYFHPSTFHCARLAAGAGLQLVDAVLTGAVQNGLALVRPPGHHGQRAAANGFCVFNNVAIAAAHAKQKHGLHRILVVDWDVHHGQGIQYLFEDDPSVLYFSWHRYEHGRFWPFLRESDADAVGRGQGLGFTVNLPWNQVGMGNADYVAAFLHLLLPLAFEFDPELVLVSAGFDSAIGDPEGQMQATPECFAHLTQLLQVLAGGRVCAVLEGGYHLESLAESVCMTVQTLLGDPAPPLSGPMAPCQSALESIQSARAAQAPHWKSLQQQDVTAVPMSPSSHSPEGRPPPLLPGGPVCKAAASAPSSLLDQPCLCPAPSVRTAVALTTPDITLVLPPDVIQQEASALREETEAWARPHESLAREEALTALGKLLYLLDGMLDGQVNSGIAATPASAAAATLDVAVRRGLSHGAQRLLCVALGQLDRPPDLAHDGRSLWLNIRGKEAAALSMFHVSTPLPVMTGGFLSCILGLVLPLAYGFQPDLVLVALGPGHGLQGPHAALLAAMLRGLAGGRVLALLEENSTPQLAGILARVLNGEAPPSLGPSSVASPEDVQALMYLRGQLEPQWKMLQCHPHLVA

[11] = biological target: Histone deacetylase 2 (Homo sapiens, UniProt Q92769)
[12] = biological target: T5, Protein deacetylase HDAC6 (Homo sapiens, UniProt Q9UBN7); assay: Inhibition of HDAC6 (unknown origin)
T5 sequence (Q9UBN7 whole entry): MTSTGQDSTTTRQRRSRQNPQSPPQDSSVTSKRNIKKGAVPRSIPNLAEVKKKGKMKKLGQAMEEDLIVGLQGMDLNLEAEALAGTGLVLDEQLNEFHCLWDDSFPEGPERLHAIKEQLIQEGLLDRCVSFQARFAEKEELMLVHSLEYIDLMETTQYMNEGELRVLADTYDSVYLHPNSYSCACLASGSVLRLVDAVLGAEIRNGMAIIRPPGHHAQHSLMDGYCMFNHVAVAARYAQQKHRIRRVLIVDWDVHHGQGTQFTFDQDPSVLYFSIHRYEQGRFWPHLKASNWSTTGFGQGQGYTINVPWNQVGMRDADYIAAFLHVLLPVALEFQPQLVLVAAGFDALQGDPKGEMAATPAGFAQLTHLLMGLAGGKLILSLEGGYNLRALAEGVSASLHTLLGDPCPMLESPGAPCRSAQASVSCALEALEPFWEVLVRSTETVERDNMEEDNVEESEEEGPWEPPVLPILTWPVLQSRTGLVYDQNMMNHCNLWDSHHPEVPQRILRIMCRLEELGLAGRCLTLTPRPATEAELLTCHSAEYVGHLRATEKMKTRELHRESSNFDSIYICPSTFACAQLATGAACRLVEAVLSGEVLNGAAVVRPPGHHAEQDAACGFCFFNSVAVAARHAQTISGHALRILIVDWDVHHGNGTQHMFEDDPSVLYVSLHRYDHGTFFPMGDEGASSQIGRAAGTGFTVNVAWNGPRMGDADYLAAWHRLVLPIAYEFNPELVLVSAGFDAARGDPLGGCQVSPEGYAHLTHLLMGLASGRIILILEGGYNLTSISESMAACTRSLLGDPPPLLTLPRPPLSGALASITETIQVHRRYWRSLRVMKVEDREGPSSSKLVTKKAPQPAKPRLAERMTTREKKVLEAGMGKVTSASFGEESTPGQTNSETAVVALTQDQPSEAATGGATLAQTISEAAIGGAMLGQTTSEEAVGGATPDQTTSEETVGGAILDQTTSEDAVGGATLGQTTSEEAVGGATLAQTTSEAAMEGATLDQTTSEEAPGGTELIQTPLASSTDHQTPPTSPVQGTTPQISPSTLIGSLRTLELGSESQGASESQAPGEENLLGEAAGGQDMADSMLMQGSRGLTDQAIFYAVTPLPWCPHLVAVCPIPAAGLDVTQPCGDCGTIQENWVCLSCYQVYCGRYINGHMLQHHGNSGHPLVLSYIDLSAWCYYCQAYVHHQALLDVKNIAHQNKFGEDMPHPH

Chain of Histone deacetylase 3 (O15379 whole entry): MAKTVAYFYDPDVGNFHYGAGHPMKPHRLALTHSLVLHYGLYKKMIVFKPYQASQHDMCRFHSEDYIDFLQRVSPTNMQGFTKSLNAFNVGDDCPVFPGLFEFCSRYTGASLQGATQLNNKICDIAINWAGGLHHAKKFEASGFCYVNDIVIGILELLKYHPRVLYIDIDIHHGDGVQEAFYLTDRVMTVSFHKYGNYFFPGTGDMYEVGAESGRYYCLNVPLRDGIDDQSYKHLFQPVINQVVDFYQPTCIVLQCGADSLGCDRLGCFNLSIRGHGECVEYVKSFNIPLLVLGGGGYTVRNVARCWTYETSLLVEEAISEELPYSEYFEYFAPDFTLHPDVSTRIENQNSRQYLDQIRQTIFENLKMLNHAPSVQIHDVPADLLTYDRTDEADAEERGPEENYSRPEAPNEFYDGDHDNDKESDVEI
Chain of Histone deacetylase 5 (Q9UQL6 whole entry): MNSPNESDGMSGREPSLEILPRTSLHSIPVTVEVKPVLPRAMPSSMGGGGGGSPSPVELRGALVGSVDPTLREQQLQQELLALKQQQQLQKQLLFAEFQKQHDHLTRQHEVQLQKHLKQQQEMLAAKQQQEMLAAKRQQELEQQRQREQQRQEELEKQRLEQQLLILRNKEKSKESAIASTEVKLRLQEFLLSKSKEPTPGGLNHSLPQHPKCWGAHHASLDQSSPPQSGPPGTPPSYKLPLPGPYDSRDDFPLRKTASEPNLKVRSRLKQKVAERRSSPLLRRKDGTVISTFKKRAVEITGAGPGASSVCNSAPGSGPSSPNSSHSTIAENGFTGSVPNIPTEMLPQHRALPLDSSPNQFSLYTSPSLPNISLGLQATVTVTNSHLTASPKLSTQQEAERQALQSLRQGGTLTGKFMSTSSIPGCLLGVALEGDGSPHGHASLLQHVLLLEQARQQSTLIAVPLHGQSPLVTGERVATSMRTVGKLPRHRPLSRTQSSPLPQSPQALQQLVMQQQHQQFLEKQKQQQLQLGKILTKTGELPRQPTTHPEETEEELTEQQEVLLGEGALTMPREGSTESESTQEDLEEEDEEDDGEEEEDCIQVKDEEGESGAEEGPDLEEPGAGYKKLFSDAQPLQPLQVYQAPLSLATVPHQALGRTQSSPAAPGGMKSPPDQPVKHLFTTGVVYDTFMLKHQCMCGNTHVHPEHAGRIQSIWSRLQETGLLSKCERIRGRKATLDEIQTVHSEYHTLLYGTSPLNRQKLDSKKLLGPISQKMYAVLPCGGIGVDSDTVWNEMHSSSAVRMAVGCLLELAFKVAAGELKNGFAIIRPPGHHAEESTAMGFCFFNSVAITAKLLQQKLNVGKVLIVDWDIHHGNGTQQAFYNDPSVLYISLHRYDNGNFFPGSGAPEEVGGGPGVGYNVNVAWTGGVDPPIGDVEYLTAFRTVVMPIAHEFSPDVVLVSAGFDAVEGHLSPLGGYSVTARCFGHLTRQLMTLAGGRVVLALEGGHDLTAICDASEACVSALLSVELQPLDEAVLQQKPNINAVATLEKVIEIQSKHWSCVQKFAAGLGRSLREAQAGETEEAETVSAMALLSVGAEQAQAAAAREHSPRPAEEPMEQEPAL
Chain of Histone deacetylase 9 (Q9UKV0 whole entry): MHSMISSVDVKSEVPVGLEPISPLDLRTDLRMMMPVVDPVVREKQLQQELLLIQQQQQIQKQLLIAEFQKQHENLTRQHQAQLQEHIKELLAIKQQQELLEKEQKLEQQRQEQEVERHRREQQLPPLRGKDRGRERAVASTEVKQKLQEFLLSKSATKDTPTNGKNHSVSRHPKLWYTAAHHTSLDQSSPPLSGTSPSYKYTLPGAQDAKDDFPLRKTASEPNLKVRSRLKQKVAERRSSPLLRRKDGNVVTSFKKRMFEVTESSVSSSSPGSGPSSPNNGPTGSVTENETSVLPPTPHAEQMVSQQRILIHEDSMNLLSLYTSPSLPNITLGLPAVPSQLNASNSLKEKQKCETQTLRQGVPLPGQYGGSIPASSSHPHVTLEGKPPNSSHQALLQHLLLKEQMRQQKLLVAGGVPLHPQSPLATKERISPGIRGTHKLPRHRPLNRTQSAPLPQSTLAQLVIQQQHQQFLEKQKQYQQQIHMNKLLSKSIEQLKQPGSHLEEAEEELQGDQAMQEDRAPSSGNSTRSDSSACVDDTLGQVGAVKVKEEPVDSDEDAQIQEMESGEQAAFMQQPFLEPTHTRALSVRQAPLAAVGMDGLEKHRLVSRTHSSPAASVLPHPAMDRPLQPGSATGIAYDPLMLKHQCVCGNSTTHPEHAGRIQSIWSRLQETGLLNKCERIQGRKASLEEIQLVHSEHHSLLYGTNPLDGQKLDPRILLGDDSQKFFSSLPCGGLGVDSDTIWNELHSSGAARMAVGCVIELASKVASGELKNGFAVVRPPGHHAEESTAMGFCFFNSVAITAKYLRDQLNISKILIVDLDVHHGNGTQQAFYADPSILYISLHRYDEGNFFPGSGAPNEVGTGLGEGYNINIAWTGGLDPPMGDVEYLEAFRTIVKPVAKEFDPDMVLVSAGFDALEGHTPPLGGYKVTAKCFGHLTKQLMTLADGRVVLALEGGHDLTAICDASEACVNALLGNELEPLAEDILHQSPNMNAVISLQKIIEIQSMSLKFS
Chain of Histone deacetylase 2 (Q92769 whole entry): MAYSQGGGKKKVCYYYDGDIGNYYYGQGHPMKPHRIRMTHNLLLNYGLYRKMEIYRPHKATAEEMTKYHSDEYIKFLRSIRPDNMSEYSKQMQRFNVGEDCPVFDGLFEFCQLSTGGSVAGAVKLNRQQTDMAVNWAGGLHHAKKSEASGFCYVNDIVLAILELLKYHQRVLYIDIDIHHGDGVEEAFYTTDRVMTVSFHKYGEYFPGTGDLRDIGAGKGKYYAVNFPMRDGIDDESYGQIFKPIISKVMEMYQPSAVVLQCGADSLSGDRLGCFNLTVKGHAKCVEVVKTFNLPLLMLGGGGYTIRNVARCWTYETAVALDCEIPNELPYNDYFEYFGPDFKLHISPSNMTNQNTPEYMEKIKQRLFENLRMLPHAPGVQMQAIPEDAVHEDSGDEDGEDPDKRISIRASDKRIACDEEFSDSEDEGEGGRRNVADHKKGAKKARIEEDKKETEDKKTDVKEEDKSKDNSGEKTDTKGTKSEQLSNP
Chain of Histone deacetylase 1 (Q13547 whole entry): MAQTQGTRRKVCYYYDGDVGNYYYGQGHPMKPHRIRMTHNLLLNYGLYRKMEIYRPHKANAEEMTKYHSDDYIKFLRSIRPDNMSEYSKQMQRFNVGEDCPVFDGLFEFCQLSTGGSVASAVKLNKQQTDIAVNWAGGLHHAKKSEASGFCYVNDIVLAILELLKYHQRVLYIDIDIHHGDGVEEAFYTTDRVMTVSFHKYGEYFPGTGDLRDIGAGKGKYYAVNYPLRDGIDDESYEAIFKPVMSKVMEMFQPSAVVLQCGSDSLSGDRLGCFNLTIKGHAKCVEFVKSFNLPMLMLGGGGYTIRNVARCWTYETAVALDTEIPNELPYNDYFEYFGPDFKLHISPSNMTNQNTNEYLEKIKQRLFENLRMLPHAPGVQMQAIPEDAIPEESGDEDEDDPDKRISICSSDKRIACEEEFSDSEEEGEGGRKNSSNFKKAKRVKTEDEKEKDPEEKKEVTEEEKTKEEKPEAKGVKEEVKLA
Chain of Histone deacetylase 4 (P56524 whole entry): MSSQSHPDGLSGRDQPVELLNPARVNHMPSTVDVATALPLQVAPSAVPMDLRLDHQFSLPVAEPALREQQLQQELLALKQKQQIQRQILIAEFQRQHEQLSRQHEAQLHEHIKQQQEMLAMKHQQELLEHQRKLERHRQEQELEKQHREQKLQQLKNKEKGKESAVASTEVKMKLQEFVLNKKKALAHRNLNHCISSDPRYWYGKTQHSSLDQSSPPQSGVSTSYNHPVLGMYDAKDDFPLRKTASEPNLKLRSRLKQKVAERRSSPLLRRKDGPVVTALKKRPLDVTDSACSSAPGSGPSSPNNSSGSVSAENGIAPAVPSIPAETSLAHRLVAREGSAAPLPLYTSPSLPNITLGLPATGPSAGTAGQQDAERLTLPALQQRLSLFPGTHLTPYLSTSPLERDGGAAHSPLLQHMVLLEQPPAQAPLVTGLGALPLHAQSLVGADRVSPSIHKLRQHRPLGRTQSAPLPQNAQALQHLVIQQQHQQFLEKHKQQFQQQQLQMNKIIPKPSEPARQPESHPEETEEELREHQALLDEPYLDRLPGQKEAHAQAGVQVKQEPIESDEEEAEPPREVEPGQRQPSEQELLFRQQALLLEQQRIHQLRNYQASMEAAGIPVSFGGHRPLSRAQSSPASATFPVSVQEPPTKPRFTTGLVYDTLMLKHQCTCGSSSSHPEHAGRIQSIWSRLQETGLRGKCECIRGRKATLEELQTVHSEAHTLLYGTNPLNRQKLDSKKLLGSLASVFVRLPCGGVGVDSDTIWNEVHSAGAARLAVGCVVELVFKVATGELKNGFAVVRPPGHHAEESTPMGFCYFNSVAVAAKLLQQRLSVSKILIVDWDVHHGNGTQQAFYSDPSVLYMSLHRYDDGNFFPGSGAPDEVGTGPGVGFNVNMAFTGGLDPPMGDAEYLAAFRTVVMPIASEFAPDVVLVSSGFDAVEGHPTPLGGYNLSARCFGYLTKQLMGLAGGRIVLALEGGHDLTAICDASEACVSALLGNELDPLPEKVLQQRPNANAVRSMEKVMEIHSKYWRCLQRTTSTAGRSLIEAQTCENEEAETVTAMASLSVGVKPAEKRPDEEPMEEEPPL

IC50 [2]	IC50 [3]	IC50 [6]	IC50 [11]	IC50 [12]	SMILES	further results
					CCc1nnc(NS(=O)(=O)c2ccc(N/C=C3\Sc4ccccc4C3=O)cc2)s1	IC50 [1]: 4200 nM
2900 nM	1700 nM	2800 nM			O=C(NO)c1ccc(CC(=O)N(CCO)c2ccccc2)cc1	IC50 [4]: > 10000 nM; IC50 [5]: > 10000 nM; IC50 [7]: > 10000 nM; IC50 [8]: > 10000 nM; IC50 [9]: > 10000 nM; IC50 [10]: 3000 nM
					CC1(C)C(=O)N(c2ccc(C#N)c(C(F)(F)F)c2)C(=O)N1Cc1ccc(-c2cn(CCCCCCC(=O)NO)nn2)cc1	IC50 [1]: 690 nM
168 nM	128 nM	400 nM	665 nM		O=C(CCCCCCNC(=O)c1c(-c2ccc(O)cc2)sc2cc(O)ccc12)NO	
1030 nM	748 nM	29900 nM	1820 nM		O=C(CCCCCn1cc(-c2ccc(C(=O)c3c(-c4ccc(O)cc4)sc4cc(O)ccc34)cc2)nn1)NO	
24 nM		152 nM			O=C(CCc1ccc(Oc2cccs2)c(O)c1)Nc1ccc(C(=O)NO)cc1	
2740 nM			170 nM		OC1(c2ccccc2)C=C(c2ccccc2)CO1 (stereo not drawn)	
66.7 nM				6 nM	CC(C)Cc1c(OCCOc2cccc(/C=C/C(=O)NO)c2)ccc2c1OC(=O)CC2	
290 nM	500 nM			560 nM	O=C(/C=C/c1cccc(Nc2ncnc3cc4c(cc23)OCCO4)c1)NO	
					CCc1nnc(NS(=O)(=O)c2ccc(Nc3nc(C)c(C(=O)Nc4ccccc4)s3)cc2)s1	IC50 [1]: 32000 nM
5 nM	3.4 nM	150 nM	0.2 nM	5 nM	CN(CCc1ccccc1)S(=O)(=O)c1cccc(/C=C/C(=O)NO)c1	IC50 [7]: 10700 nM; IC50 [8]: 16900 nM; IC50 [9]: 500 nM
					CC[N+]1=C(/C=C/C=C/C=C2/N(CCCCC(=O)N(CCc3c(C)[nH]c4ccccc34)Cc3ccc(/C=C/C(=O)NO)cc3)c3ccc4c(S(=O)(=O)O)cc(S(=O)(=O)O)cc4c3C2(C)C)C(C)(C)c2c1ccc1c(S(=O)(=O)[O-])cc(S(=O)(=O)O)cc21	IC50 [1]: 9.6 nM
10 nM	5200 nM		20 nM		CN(C)Cc1ccc(C(=O)Nc2cc(-c3ccccc3)ccc2N)cc1	
160 nM	180 nM			560 nM	COc1cc2c(Nc3cccc(/C=C/C(=O)NO)c3)ncnc2cc1OCCCN1CCOCC1	

SMILES	IC50 [2]	IC50 [3]	IC50 [6]	IC50 [11]	IC50 [12]	further results
[11CH3]n1cc(CCNCc2ccc(/C=C/C(=O)NO)cc2)c2ccccc21	0.2 nM	0.4 nM	1040 nM	1.2 nM	1.6 nM	IC50 [4]: 2040 nM; IC50 [7]: 99 nM; IC50 [8]: 4850 nM; IC50 [9]: 655 nM
